From patent US6822146B2, “Sulfonylurea-tolerant sunflower line M7” (priority 2000, dated 2004)

How the values were obtained:
Assay type in all cases: in vivo, sunflower
BC4-M5M7 = experiment: Test B greenhouse phytotoxicity, BC4-M5M7
Procedure: (§1) A greenhouse experiment was conducted to evaluate the spectrum of tolerance of three homozygous resistant mutants to various herbicides inhibiting acetolactate synthase (ALS) as their mode of action. The inbred lines tested were the 5th generation self-pollinated maintainers, M5M7, M5M11 and M5M12, as well as the 4th generation male sterile back-crosses BC4-M5M7, BC4-M5M11 and BC4-M5M12. Treatments of formulated herbicides were applied post-emergence at the 4-leaf stage. Application rates of the test herbicides were chosen to coincide with the rates commonly used in the crops for which they are registered. The application rate of imazethapyr was chosen to match the rate recommended to control parasitic weeds in sunflowers by L. García-Torres et al., Weed Technology 1995, 9, 819-824. Wild type H89 inbred sunflower was not included in this test, because the many of the tested herbicides are known to be efficacious in controlling volunteer sunflower as a weed. Treatments were replicated twice. […] A rating of 0% phytotoxicity means no crop injury.

M5M7 = experiment: Test B greenhouse phytotoxicity, M5M7
Procedure: as §1

[1] = test system: homozygous progeny of the three mutant sources; settings: Test B application rates, post-emergence
Procedure: as §1

M5M12 = experiment: Test B greenhouse phytotoxicity, M5M12
Procedure: as §1

BC4-M5M11 = experiment: Test B greenhouse phytotoxicity, BC4-M5M11
Procedure: as §1

BC4-M5M12 = experiment: Test B greenhouse phytotoxicity, BC4-M5M12
Procedure: as §1

M5M11 = experiment: Test B greenhouse phytotoxicity, M5M11
Procedure: as §1

BC4-M5M12 × PHA155 = experiment: Test C field phytotoxicity, BC4-M5M12 × PHA155
Excerpt: (§2) A rating of 0% phytotoxicity means no crop injury.

BC4-M5M7 × PHA155 = experiment: Test C field phytotoxicity, BC4-M5M7 × PHA155
Excerpt: as §2

[2] = postemergence 6.25 g a.i./ha, 7 DAT
[3] = postemergence 6.25 g a.i./ha, 15 DAT
[4] = postemergence 6.25 g a.i./ha, 30 DAT
[5] = postemergence 12.5 g a.i./ha, 7 DAT
[6] = postemergence 12.5 g a.i./ha, 15 DAT
[7] = postemergence 12.5 g a.i./ha, 30 DAT

SMILES | Maximum Phytotoxicity (BC4-M5M7; in vivo) [%] | Maximum Phytotoxicity (M5M7; in vivo) [%] | tolerance of the mutants [1] | Maximum Phytotoxicity (M5M12; in vivo) [%] | Maximum Phytotoxicity (BC4-M5M11; in vivo) [%] | Maximum Phytotoxicity (BC4-M5M12; in vivo) [%] | Maximum Phytotoxicity (M5M11; in vivo) [%] | other results
COc1cc(OC)nc(NC(=O)NS(=O)(=O)N(C)S(C)(=O)=O)n1 [Amidosulfuron, amidosulfuron] | 47.5 | 52.5 | somewhat sensitive | 45 | 57.5 | 55 | 60 | –
CCOC(=O)c1ccccc1S(=O)(=O)NC(=O)Nc1nc(Cl)cc(OC)n1 [Chlorimuron-ethyl, chlorimuron-ethyl] | – | – | – | – | – | – | – | Phytotoxicity Rating After Treatment (BC4-M5M12 × PHA155; [2]): 70%; Phytotoxicity Rating After Treatment (BC4-M5M12 × PHA155; [3]): 80%; Phytotoxicity Rating After Treatment (BC4-M5M12 × PHA155; [4]): 68%; Phytotoxicity Rating After Treatment (BC4-M5M12 × PHA155; [5]): 80%; Phytotoxicity Rating After Treatment (BC4-M5M12 × PHA155; [6]): 90%; Phytotoxicity Rating After Treatment (BC4-M5M12 × PHA155; [7]): 88%; Phytotoxicity Rating After Treatment (BC4-M5M7 × PHA155; [2]): 83%; Phytotoxicity Rating After Treatment (BC4-M5M7 × PHA155; [3]): 73%; Phytotoxicity Rating After Treatment (BC4-M5M7 × PHA155; [4]): 67%; Phytotoxicity Rating After Treatment (BC4-M5M7 × PHA155; [5]): 85%; Phytotoxicity Rating After Treatment (BC4-M5M7 × PHA155; [6]): 83%; Phytotoxicity Rating After Treatment (BC4-M5M7 × PHA155; [7]): 83%
COC(=O)c1ccc(C(F)(F)F)nc1S(=O)(=O)NC(=O)Nc1nc(OC)cc(OC)n1 [Flupyrsulfuron-methyl-sodium] | 42.5 | 62.5 | somewhat sensitive | 57.5 | 60 | 50 | 50 | –
COC(=O)c1c(Cl)nn(C)c1S(=O)(=O)NC(=O)Nc1nc(OC)cc(OC)n1 [Halosulfuron-methyl, halosulfuron-methyl] | – | – | somewhat sensitive | – | – | – | – | Maximum Phytotoxicity (BC4-M5M7; BC4-M5M7, 45 g a.i./ha post-emergence 4-leaf stage): 60%; Maximum Phytotoxicity (M5M7; M5M7, 45 g a.i./ha post-emergence 4-leaf stage): 50%; Maximum Phytotoxicity (M5M12; M5M12, 45 g a.i./ha post-emergence 4-leaf stage): 60%; Maximum Phytotoxicity (BC4-M5M11; BC4-M5M11, 45 g a.i./ha post-emergence 4-leaf stage): 65%; Maximum Phytotoxicity (BC4-M5M12; BC4-M5M12, 45 g a.i./ha post-emergence 4-leaf stage): 65%; Maximum Phytotoxicity (M5M11; M5M11, 45 g a.i./ha post-emergence 4-leaf stage): 60%
COc1cc(OC)nc(Sc2cccc(Cl)c2C(=O)O)n1 [Pyrithiobac-sodium] | 35 | 37.5 | somewhat sensitive | 40 | 42.5 | 40 | 50 | –
CCS(=O)(=O)c1nc2ccccn2c1S(=O)(=O)NC(=O)Nc1nc(OC)cc(OC)n1 [Sulfosulfuron] | 47.5 | 50 | somewhat sensitive | 65 | 57.5 | 50 | 60 | –
